Measured values: US9604982B2, “P2X7 modulators” (Janssen Pharmaceutica NV, priority 2013, dated 2017)
Read-outs that look alike come from different tables or passages of the source.

Tests used:
P2X7 [1] = molecular target: T1, P2X7 (Homo sapiens (Human), UniProt Q99572); assay: Radioligand binding, human P2X7-1321N1 cell membranes, tracer tritiated A-804598; conditions: Table 3 (additional runs)
Procedure: (§1) P2X7 Antagonism in Recombinant Human P2X7 Cells or Recombinant Rat P2X7 Cells: (a) Ca^2+ Flux and (b) Radioligand Binding
On the day of the experiment, cell membrane preparations were made according to standard published methods. […] The compound can be prepared as described in the literature. […] The assay was terminated by filtration (GF/B filters pre-soaked with 0.3% PEI) and washed with washing buffer (Tris-HCl 50 mM). The IC50 generated in the binding assay was corrected for tracer concentration and affinity of the tracer to derive at the affinity (K) of the test compounds. […] Data are analyzed and graphed on Graphpad Prism 5.

P2X7 [2] = molecular target: T1, P2X7; assay: P2X7 antagonism in human peripheral blood mononuclear cells (PBMCs), IL-1β release after LPS + Bz-ATP (ELISA); format: cell-based; conditions: 0.5 mM Bz-ATP; for remaining activity at 10 µM: read-out: PBMC 10 μM (% control); for PBMC 10 μM (% control): Table 3 (additional runs)
Procedure: Human blood was collected using a blood donor program. […] Cells were incubated for an additional 1.5 hours. […] Data are analyzed and graphed on Graphpad Prism 5. […] The IC50 for each compound is then uploaded into 3DX.

[3] = molecular target: recombinant rat P2X7 channel (Rattus norvegicus (Rat), UniProt Q64663); assay: Ca2+ flux (FLIPR) in 1321N1 cells expressing recombinant rat P2X7 channel; format: cell-based; conditions: Table 3 (additional runs); 250 μM BzATP
Procedure: as §1
(§2) (a) Ca^2+ flux: 1321N1 cells expressing the recombinant human or rat P2X7 channel was cultured in HyQ DME/(HyClone/Dulbecco's Modified Eagle Medium) high glucose supplemented with 10% Fetal Bovine Serum (FBS) and appropriate selection marker. Cells were seeded at a density of 25000 cells/well (96-well clear bottom black walled plates) in 100 μl volume/well. On the day of the experiment, cell plates were washed with assay buffer, containing (in mM): 130 NaCl, 2 KCl, 1 CaCl2, 1 MgCl2, 10 HEPES, 5 glucose; pH 7.40 and 300 mOs. After the wash, cells were loaded with the Calcium-4 dye (Molecular Device) and incubated in the dark for 60 minutes. Test compounds were prepared at 250× the test concentration in neat DMSO. Intermediate 96-well compound plates were prepared by transferring 1.2 μL of the compound into 300 μL of assay buffer. A further 3× dilution occurred when transferring 50 μL/well of the compound plate to 100 μL/well in the cell plate. Cells were incubated with test compounds and dye for 30 minutes. […] The fluorescence change was measured 180 seconds after adding the agonist.

P2X7 [4] = molecular target: T1, P2X7; assay: Ca2+ flux (FLIPR) in 1321N1 cells expressing recombinant human P2X7 channel; format: cell-based; conditions: Table 3 (additional runs); 250 μM BzATP
Procedure: as §1, §2

[5] = P2X7, Table 3 (additional runs), 10 μM compound

T1 sequence (Q99572 whole entry): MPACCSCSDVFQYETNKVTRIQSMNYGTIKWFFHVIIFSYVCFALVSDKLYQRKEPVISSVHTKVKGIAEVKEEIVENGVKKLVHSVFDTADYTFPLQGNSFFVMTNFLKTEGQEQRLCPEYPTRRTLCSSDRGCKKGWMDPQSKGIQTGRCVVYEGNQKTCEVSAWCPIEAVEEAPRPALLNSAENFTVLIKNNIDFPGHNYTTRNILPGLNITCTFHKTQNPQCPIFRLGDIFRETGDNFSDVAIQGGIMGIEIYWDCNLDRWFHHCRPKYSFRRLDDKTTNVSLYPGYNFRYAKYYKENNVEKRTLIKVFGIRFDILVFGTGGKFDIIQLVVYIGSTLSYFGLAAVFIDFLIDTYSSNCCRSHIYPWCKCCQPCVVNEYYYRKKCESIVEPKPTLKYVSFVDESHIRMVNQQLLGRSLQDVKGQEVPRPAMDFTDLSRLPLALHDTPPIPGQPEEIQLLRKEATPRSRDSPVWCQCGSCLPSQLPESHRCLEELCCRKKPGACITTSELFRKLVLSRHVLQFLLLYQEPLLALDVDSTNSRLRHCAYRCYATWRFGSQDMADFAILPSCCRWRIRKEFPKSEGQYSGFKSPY
Chain of recombinant rat P2X7 channel (Q64663 whole entry): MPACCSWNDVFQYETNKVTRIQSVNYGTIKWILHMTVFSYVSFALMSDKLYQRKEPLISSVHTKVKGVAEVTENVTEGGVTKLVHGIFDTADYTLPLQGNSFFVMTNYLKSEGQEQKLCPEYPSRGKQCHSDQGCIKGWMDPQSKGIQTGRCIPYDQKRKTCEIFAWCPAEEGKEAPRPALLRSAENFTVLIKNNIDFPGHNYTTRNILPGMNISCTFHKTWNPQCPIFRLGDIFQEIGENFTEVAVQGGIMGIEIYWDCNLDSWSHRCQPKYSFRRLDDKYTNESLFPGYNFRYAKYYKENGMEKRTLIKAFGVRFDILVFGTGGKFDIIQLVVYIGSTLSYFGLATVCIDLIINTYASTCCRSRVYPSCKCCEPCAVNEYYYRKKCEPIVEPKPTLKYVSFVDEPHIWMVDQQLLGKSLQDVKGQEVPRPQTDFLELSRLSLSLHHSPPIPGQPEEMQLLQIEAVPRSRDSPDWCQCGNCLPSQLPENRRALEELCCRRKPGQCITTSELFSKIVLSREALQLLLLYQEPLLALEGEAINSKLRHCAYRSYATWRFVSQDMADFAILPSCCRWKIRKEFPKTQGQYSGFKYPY

| SMILES | remaining activity at 10 µM (P2X7 [2]; P2X7, Table 2, 10 μM compound) | PBMC 10 μM (% control) (P2X7 [2]; 10 μM compound) | IC50 [3] | remaining activity at 10 µM (P2X7 [2]; [5]) | also measured |
| --- | --- | --- | --- | --- | --- |
| Cc1nc2c(c(-c3ccn[nH]3)n1)C[C@H](C)N(C(=O)c1ccc(Cl)cc1F)C2 (single isomer, unassigned) [Example 89, (S*)-(4-chloro-2-fluorophenyl)(2,6-dimethyl-4-(1H-pyrazol-5-yl)-5,6-dihydropyrido[3,4-d]pyrimidin-7(8H)-yl)methanone] | – | – | – | – | Ki (P2X7 [1]): 7.7 nM |
| C[C@@H]1c2ncnc(-c3ccn[nH]3)c2CCN1C(=O)c1ccc(F)c(Cl)c1Cl (single isomer, unassigned) [Example 119, (R*)-(2,3-dichloro-4-fluorophenyl)(8-methyl-4-(1H-pyrazol-5-yl)-5,6-dihydropyrido[3,4-d]pyrimidin-7(8H)-yl)methanone] | -1.5% | −1.5 % control | – | – | – |
| C[C@H]1c2ncnc(-c3ccn[nH]3)c2CCN1C(=O)c1ccc(F)c(Cl)c1Cl (single isomer, unassigned) [Example 120, (S*)-(2,3-dichloro-4-fluorophenyl)(8-methyl-4-(1H-pyrazol-5-yl)-5,6-dihydropyrido[3,4-d]pyrimidin-7(8H)-yl)methanone] | 2.9% | 2.9 % control | – | – | – |
| C[C@@H]1c2ncnc(-c3ccn[nH]3)c2CCN1C(=O)c1ccc(Cl)c(F)c1Cl (single isomer, unassigned) [Example 122, (R*)-(2,4-dichloro-3-fluorophenyl)(8-methyl-4-(1H-pyrazol-5-yl)-5,6-dihydropyrido[3,4-d]pyrimidin-7(8H)-yl)methanone] | 4.1% | 4.1 % control | – | – | – |
| C[C@H]1c2ncnc(-c3ccn[nH]3)c2CCN1C(=O)c1ccc(Cl)c(F)c1Cl (single isomer, unassigned) [Example 123, (S*)-(2,4-dichloro-3-fluorophenyl)(8-methyl-4-(1H-pyrazol-5-yl)-5,6-dihydropyrido[3,4-d]pyrimidin-7(8H)-yl)methanone] | 13.3% | – | – | – | – |
| Cc1nc2c(c(-c3ccn(CCF)n3)n1)C[C@@H](C)N(C(=O)c1cccc(C(F)(F)F)c1Cl)C2 (single isomer, unassigned) [Example 124, (R*)-(2-chloro-3-(trifluoromethyl)phenyl)(4-(1-(2-fluoroethyl)-1H-pyrazol-3-yl)-2,6-dimethyl-5,6-dihydropyrido[3,4-d]pyrimidin-7(8H)-yl)methanone] | 18.6% | – | – | – | – |
| COCCn1ccc(-c2nc(C)nc3c2C[C@H](C)N(C(=O)c2cccc(C(F)(F)F)c2Cl)C3)n1 (single isomer, unassigned) [Example 127, (S*)-(2-chloro-3-(trifluoromethyl)phenyl)(4-(1-(2-methoxyethyl)-1H-pyrazol-3-yl)-2,6-dimethyl-5,6-dihydropyrido[3,4-d]pyrimidin-7(8H)-yl)methanone] | 38.2% | – | – | – | – |
| COCCn1ccc(-c2nc(C)nc3c2C[C@@H](C)N(C(=O)c2cccc(C(F)(F)F)c2Cl)C3)n1 (single isomer, unassigned) [Example 128, (R*)-(2-chloro-3-(trifluoromethyl)phenyl)(4-(1-(2-methoxyethyl)-1H-pyrazol-3-yl)-2,6-dimethyl-5,6-dihydropyrido[3,4-d]pyrimidin-7(8H)-yl)methanone] | 7.3% | 7.3 % control | – | – | – |
| Cc1nc2c(c(-c3ccn[nH]3)n1)C[C@@H](C)N(C(=O)c1cccc(OC(F)(F)F)c1)C2 (single isomer, unassigned) [Example 141, (R*)-(2,6-dimethyl-4-(1H-pyrazol-5-yl)-5,6-dihydropyrido[3,4-d]pyrimidin-7(8H)-yl)(3-(trifluoromethoxy)phenyl)methanone] | – | – | 12400 nM | – | IC50 (P2X7 [4]): 9000 nM |
| Cc1nc2c(c(-c3ccn[nH]3)n1)C[C@H](C)N(C(=O)c1cccc(OC(F)(F)F)c1)C2 (single isomer, unassigned) [Example 142, (S*)-(2,6-dimethyl-4-(1H-pyrazol-5-yl)-5,6-dihydropyrido[3,4-d]pyrimidin-7(8H)-yl)(3-(trifluoromethoxy)phenyl)methanone] | – | – | – | 73.9% | – |
| Cc1nc2c(c(-c3ccn[nH]3)n1)CC(C)N(C(=O)c1cccc(OC(F)(F)F)c1F)C2 (centres unmarked) [Example 139, (2,6-dimethyl-4-(1H-pyrazol-5-yl)-5,6-dihydropyrido[3,4-d]pyrimidin-7(8H)-yl)(2-fluoro-3-(trifluoromethoxy)phenyl)methanone] | – | – | 1460 nM | 2% | – |
| Cc1nc2c(c(-c3ccn[nH]3)n1)CC(C)N(C(=O)c1cccc(OC(F)(F)F)c1)C2 (centres unmarked) [Example 140, (2,6-dimethyl-4-(1H-pyrazol-5-yl)-5,6-dihydropyrido[3,4-d]pyrimidin-7(8H)-yl)(3-(trifluoromethoxy)phenyl)methanone] | – | – | 47300 nM | 52.5% | IC50 (P2X7 [4]): > 10000 nM |
| COc1cncc(C(=O)N2Cc3nc(C)nc(-c4ccn[nH]4)c3CC2C)c1 (centres unmarked) [Example 147, (2,6-dimethyl-4-(1H-pyrazol-5-yl)-5,6-dihydropyrido[3,4-d]pyrimidin-7(8H)-yl)(5-methoxypyridin-3-yl)methanone] | – | – | – | 110% | – |

Second part, led by results:

| remaining activity at 10 µM (P2X7 [2]; P2X7, Table 2, 10 μM compound) | PBMC 10 μM (% control) (P2X7 [2]; 10 μM compound) | IC50 [3] | remaining activity at 10 µM (P2X7 [2]; [5]) | SMILES | also measured |
| --- | --- | --- | --- | --- | --- |
| – | – | 200 nM | – | Cc1nc2c(c(-c3ccn[nH]3)n1)C[C@@H](C)N(C(=O)c1cccc(F)c1Cl)C2 (single isomer, unassigned) [Example 144, (R*)-(2-chloro-3-fluorophenyl)(2,6-dimethyl-4-(1H-pyrazol-5-yl)-5,6-dihydropyrido[3,4-d]pyrimidin-7(8H)-yl)methanone] | – |
| – | – | – | 67.4% | Cc1nc2c(c(-c3ccn[nH]3)n1)C[C@H](C)N(C(=O)c1cccc(F)c1Cl)C2 (single isomer, unassigned) [Example 145, (S*)-(2-chloro-3-fluorophenyl)(2,6-dimethyl-4-(1H-pyrazol-5-yl)-5,6-dihydropyrido[3,4-d]pyrimidin-7(8H)-yl)methanone] | – |
| -4.1% | −4.1 % control | – | – | Cc1nc2c(c(-c3ccn[nH]3)n1)C[C@@H](C)N(C(=O)c1ccc(Cl)c(F)c1Cl)C2 [Example 71, (R)-(2,4-dichloro-3-fluorophenyl)(2,6-dimethyl-4-(1H-pyrazol-5-yl)-5,6-dihydropyrido[3,4-d]pyrimidin-7(8H)-yl)methanone] | – |
| -2.6% | −2.6 % control | – | – | Cc1nc2c(c(-c3ccn[nH]3)n1)C[C@H](C)N(C(=O)c1ccc(Cl)c(F)c1Cl)C2 [Example 72, (S)-(2,4-dichloro-3-fluorophenyl)(2,6-dimethyl-4-(1H-pyrazol-5-yl)-5,6-dihydropyrido[3,4-d]pyrimidin-7(8H)-yl)methanone] | – |
| – | – | 52.2 nM | 11.9% | Cc1nc2c(c(-c3ccn[nH]3)n1)CC(C)N(C(=O)c1cccc(F)c1Cl)C2 (centres unmarked) [Example 143, (2-chloro-3-fluorophenyl)(2,6-dimethyl-4-(1H-pyrazol-5-yl)-5,6-dihydropyrido[3,4-d]pyrimidin-7(8H)-yl)methanone] | – |
| – | – | > 10000 nM | -0.8% | COc1cccc(C(=O)N2Cc3nc(C)nc(-c4ccn[nH]4)c3CC2C)c1C (centres unmarked) [Example 146, (2,6-dimethyl-4-(1H-pyrazol-5-yl)-5,6-dihydropyrido[3,4-d]pyrimidin-7(8H)-yl)(3-methoxy-2-methylphenyl)methanone] | IC50 (P2X7 [4]): 1060 nM |
